Read-outs that look alike come from different tables or passages of the source.
Tests used:
[1] = DPPH radical scavenging assay
Protocol: Briefly, the compounds were dissolved at a concentration of 1 mg/mL in absolute methanol, and a dilution was prepared. […] Then, 100 µL of the DPPH solution was added to 100 µL of the compounds’ solution to a final concentration of 0.03 mg/mL or 0.06 mg/mL, and the decolorization of the purple radical to the yellowish reduced form was followed by recording the absorbance at 517 nm. Ascorbic acid (Asc) and Trolox were used as positive controls. Both of them, Asc and Trolox, were purchased from Sigma-Aldrich. Determinations were recorded at eight different time intervals from 0 to 120 min on a BioTeck PowerWave XS spectrophotometer, and the data were collected using KCJunior version 1.41. software. All the measurements were carried out in triplicate. Results are expressed as the percentage of the radical scavenged, calculated using the following formula: % DPPH radical scavenging = [(Acontrol − Asample)/Acontrol] × 100, wherein Acontrol refers to the absorbance of the negative control and Asample refers to the absorbance of the tested compounds.

HT-29 colon cancer cells = assay: MTT cell viability assay, HT-29; format: cell-based; details: mean ± SD
Protocol: (§1) The cell lines were purchased from the American Type Culture Collection (ATCC). The cancer cell lines DU-145, PC-3, T-47D, MDA-MB-231, H1299, and A549, and the non-tumorigenic cells (184B5 and BEAS-2B), were maintained in RPMI 1640 medium (Gibco, Alcobendas, Madrid, Spain) supplemented with 10% fetal bovine serum (FBS; Gibco) and 1% antibiotics (10.00 units/mL penicillin and 10.00 mg/mL streptomycin; Gibco). Colon cancer cells HT-29 and HCT-116 were cultured in McCoy’s 5A medium (Gibco) supplemented with 10% fetal bovine serum (FBS; Gibco) and 1% antibiotics (10.00 units/mL penicillin and 10.00 mg/mL streptomycin; Gibco). Cells were maintained in tissue culture flasks at 37 °C and 5% CO2. The culture medium was replaced every three days.
(§2) The antiproliferative activity and selectivity in vitro of the Se-NSAID derivatives were determined by the (3-(4,5-dimethylthiazol-2-yl)-2,5-diphenyltetrazolium bromide) (MTT) assay. Compounds were dissolved in DMSO at a concentration of 0.01 M and serial dilutions were prepared. The Se-NSAID derivatives were tested at seven concentrations ranging between 1 and 100 µM in the colon (HT-29 and HCT-116), prostate (DU-145 and PC-3), breast (MDA-MB-231 and T-47D), and lung (H1299 and A549) cancer cell lines. The non-tumorigenic breast (184B5) and lung (BEAS-2B) cell lines were also tested to assess the selectivity of the compounds following the same procedure. A total of 1 × 10^4 cells were seeded per well in 96-well plates and incubated at 5% CO2 and 37 °C for 24 h. Then, cells were treated with either DMSO or increasing concentrations of the corresponding Se-NSAID derivatives for 48 h. A volume of 20 µL of MTT (5 mg/mL) was added to each well 2.5 h before the termination point. At the end of the experiment, the medium was removed, and the resultant formazan crystals formed by mitochondrial reduction of MTT were dissolved in 50 µL of DMSO. Absorbance was measured at 550 nm. IC50, GI50, TGI, and LC50 values were calculated using OriginPro version 8.5.1. software by nonlinear curve fitting. Selectivity indexes (SI) were calculated as the ratio of the IC50 values determined for the nonmalignant and the tumoral cells in the breast (IC50 (184B5)/IC50 (MDA-MB-231) and IC50 (184B5)/IC50 (T-47D)) and lung (IC50 (BEAS-2B)/IC50 (H1299) and IC50 (BEAS-2B)/IC50 (A549)) cell lines. Data were obtained from at least three independent experiments performed in triplicates.

[2] = test system: HCT-116 colon cancer cells; assay: MTT cell viability assay, HCT-116; format: cell-based; details: mean ± SD
Protocol: as §1, §2

[3] = test system: MDA-MB-231 breast cancer cells; assay: MTT cell viability assay, MDA-MB-231; format: cell-based; details: mean ± SD
Protocol: as §1, §2

H1299 lung cancer cells = assay: MTT cell viability assay, H1299; format: cell-based; details: mean ± SD
Protocol: as §1, §2

A549 lung cancer cells = assay: MTT cell viability assay, A549; format: cell-based; details: Homo sapiens, A549, 48 h, mean ± SD
Protocol: as §1, §2

[4] = test system: 184B5 non-tumorigenic breast (mammary gland) cells; assay: MTT cell viability assay, 184B5; format: cell-based; details: mean ± SD; for IC50: nonmalignant breast cells
Protocol: as §1, §2

[5] = test system: BEAS-2B non-tumorigenic lung (bronchial epithelium) cells; assay: MTT cell viability assay, BEAS-2B; format: cell-based; details: 48 h, mean ± SD; for IC50: nonmalignant lung cells
Protocol: as §1, §2

[6] = test system: panel of eight cancer cell lines; assay: MTT cell viability assay, statements on the whole panel; format: cell-based; details: 48 h
Protocol: as §1, §2

In vivo toxicity study = assay: In vivo toxicity study; set-up: species or system mice; details: 7.5 mg/Kg IP thrice weekly, 27 days
Protocol: Female mice of 4–5 weeks of age (The Jackson Laboratory, Bar Harbor, ME, USA) were kept on the daily cycle of 12 h light/dark and received food and water ad libitum throughout the studies. All animal procedures were performed following the National Institutes of Health (NIH) Guide for the Care and Use of Laboratory Animals and protocols were approved by the Animal Care and Use Committee of the Penn State College of Medicine.
Mice were treated either with intraperitoneal doses of 7.5 mg/Kg of compound 5 or with DMSO (vehicle) thrice weekly and kept under observation for 27 days. Body weight, behavior, and food and water intake were monitored every alternate day. At the end of the study, animals were sacrificed by euthanizing the animals by CO2 asphyxiation. The blood serum was withdrawn and subjected to the biochemical analysis of creatinine (mg/dL), AST(SGOT) (U/L), ALT(SGPT) (U/L), Alk. Phos (U/L), and BUN (mg/dL).

[7] = in vitro TGI concentration, 48 h, Table S1

## CC(C)Cc1ccc(C(C)C(=O)[Se][Se]C(=O)C(C)c2ccc(CC(C)C)cc2)cc1 (centres unmarked) [Compound 5, 2-(4-Isobutylphenyl)propanoic diselenoperoxyanhydride]
[1]; highest concentration tested (0.06 mg/mL), by the end of the experiment (120 min)
  DPPH radical scavenging activity: comparable to those of the positive controls
[1]; lowest concentration tested (0.03 mg/mL)
  DPPH radical scavenging activity: 20%
HT-29 colon cancer cells; Homo sapiens, HT-29, 48 h
  IC50: 8.5 ± 2.7 µM
HT-29 colon cancer cells; Homo sapiens, HT-29, 48 h, Table S1
  GI50: 4.8 ± 1 µM
HT-29 colon cancer cells; [7]
  TGI HT-29: 7.2 ± 1.8 µM
[2]; Homo sapiens, HCT-116, 48 h
  IC50: 9 ± 3 µM
[2]; Homo sapiens, HCT-116, 48 h, Table S1
  GI50: 4.6 ± 1.5 µM
[2]; [7]
  TGI HCT-116: 10.3 ± 3.8 µM
[3]; Homo sapiens, MDA-MB-231, 48 h
  IC50: 8.3 ± 2.5 µM
[3]; Homo sapiens, MDA-MB-231, 48 h, Table S1
  GI50: 4.8 ± 1.1 µM
[3]; [7]
  TGI MDA-MB-231: 7.9 ± 3.8 µM
H1299 lung cancer cells; 48 h, Table S1
  LD50 H1299: 16.5 ± 5.1 µM
H1299 lung cancer cells; Homo sapiens, NCI-H1299, 48 h
  IC50: 9.3 ± 0.6 µM
H1299 lung cancer cells; Homo sapiens, NCI-H1299, 48 h, Table S1
  GI50: 8.1 ± 1 µM
H1299 lung cancer cells; [7]
  TGI H1299: 10.2 ± 1.0 µM
A549 lung cancer cells
  IC50: 4.5 ± 0.6 µM
A549 lung cancer cells; Table S1
  GI50: 2.3 ± 0.2 µM
[4]; 48 h
  IC50: 18.2 ± 0.8 µM
[4]; Homo sapiens, 184B5, 48 h, Table S1
  GI50: 6.6 ± 1.5 µM
[4]; Homo sapiens, 184B5, 48 h
  IC50: 14 to 19 µM
[4]; [7]
  TGI 184B5: 11.1 ± 1.4 µM
[5]; Table S1
  LD50 BEAS-2B: 14.8 ± 4.7 µM
[5]
  IC50: 15.9 ± 2.4 µM
[5]; Homo sapiens, BEAS-2B, Table S1
  GI50: 7.8 ± 2.3 µM
[5]; Homo sapiens, BEAS-2B
  IC50: 14 to 19 µM
[5]; in vitro TGI concentration, Table S1
  TGI BEAS-2B: 9.8 ± 1.6 µM
[6]; eight cancer cell lines, read-out: GI50 across all the cancer cell lines tested
  GI50: < 10 µM
[6]; eight colon, prostate, breast and lung cancer cell lines, read-out: IC50 in all the cancer cell lines tested
  IC50: < 10 µM
[6]; read-out: GI50 in at least six out of the eight cell lines
  GI50: < 5 µM
In vivo toxicity study; female nude mice, endpoint
  blood serum biochemistry (creatinine, AST, ALT, Alk. Phos, BUN) vs vehicle: no significant changes
In vivo toxicity study; mice
  behavior and food/water uptake: no changes
  body weight during treatment: no appreciable variations

From article PMC10525927, “First Generation of Antioxidant Precursors for Bioisosteric Se-NSAIDs: Design, Synthesis, and In Vitro and In Vivo Anticancer Evaluation” (Antioxidants, 2023)
